Measurements taken from patent publication US9839629B2, “Inhibitors of the renal outer medullary potassium channel” (Merck Sharp & Dohme Corp., priority 2013, dated 2017).

Biological target: T1, ROMK (Kir1.1) channel (Homo sapiens, UniProt P48048)
T1 sequence (P48048 1-391): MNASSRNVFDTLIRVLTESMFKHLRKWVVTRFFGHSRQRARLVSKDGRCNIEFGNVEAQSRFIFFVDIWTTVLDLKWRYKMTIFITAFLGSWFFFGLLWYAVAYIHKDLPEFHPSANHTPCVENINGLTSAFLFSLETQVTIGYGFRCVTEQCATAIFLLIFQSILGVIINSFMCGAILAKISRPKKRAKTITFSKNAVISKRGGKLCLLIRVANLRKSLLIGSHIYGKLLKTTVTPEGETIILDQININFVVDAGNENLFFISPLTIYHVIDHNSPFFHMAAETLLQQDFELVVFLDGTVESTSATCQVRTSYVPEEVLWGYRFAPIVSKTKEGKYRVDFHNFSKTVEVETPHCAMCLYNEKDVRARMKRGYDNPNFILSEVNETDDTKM
Experiment: Thallium Flux Assay
Type: cell-based
Description: A Thallium Flux Assay was performed on each of the final product compounds in the Examples. When the final product of an Example was an HCl salt, the salt was run in the Assay. This assay has been described previously; see, e.g., PCT Published Application WO 2013/062900.

IC50 [nM] | Compound
552 | CC1=C(N2CCC3(CCN(C[C@H](O)c4ccc5c(c4C)COC5=O)CC3)CC2=O)COC1=O [Example 28, (R)-9-(2-hydroxy-2-(4-methyl-1-oxo-1,3-dihydroisobenzofuran-5-yl)ethyl)-3-(4-methyl-5-oxo-2,5-dihydrofuran-3-yl)-3,9-diazaspiro[5.5]undecan-2-one]
185 | CC1=C(N2CCC3(CCN(C[C@@H](O)c4cc(-n5cnnn5)ccn4)CC3)CC2)COC1=O [Example 68, (R)-4-(9-(2-(4-(1H-tetrazol-1-yl)pyridin-2-yl)-2-hydroxyethyl)-3,9-diazaspiro[5.5]undecan-3-yl)-3-methylfuran-2(5H)-one]
13 | CC1=C(N2CCC3(CCN(C[C@H](O)c4ccc5c(c4C)COC5=O)CC3)CC2)COC1=O [Example 7, (R)-5-(1-hydroxy-2-(9-(4-methyl-5-oxo-2,5-dihydrofuran-3-yl)-3,9-diazaspiro[5.5]undecan-3-yl)ethyl)-4-methylisobenzofuran-1(3H)-one]
114 | COCO[C@H]1CN(C2=C(C)C(=O)OC2)CCC12CCN(C[C@H](O)c1ccc3c(c1C)COC3=O)CC2 [Example 95, 5-{(1R)-1-hydroxy-2-[(7R)-7-(methoxymethoxy)-9-(4-methyl-5-oxo-2,5-dihydrofuran-3-yl)-3,9-diazaspiro[5.5]undec-3-yl]ethyl}-4-methyl-2-benzofuran-1(3H)-one]
196 | CC1=C(N2CCC3(CCN(C[C@H](O)c4cncc(-n5cnnn5)c4)CC3)CC2)COC1=O [Example 63, (R)-4-(9-(2-(5-(1H-tetrazol-1-yl)pyridin-3-yl)-2-hydroxyethyl)-3,9-diazaspiro[5.5]undecan-3-yl)-3-methylfuran-2(5H)-one]
168 | Cc1c([C@@H](O)CN2CCC3(CC2)CCN(C2=C(c4ccccc4)C(=O)OC2)CC3)ccc2c1COC2=O [Example 41, (R)-5-(1-hydroxy-2-(9-(5-oxo-4-phenyl-2,5-dihydrofuran-3-yl)-3,9-diazaspiro[5.5]undecan-3-yl)ethyl)-4-methylisobenzofuran-1(3H)-one]
243 | Cc1nc(-n2cnnn2)ccc1[C@H](O)CN1CCC2(CC1)CCN(C1=CC(=O)CC1)CC2 [Example 71, (S)-3-(9-(2-hydroxy-2-(2-methyl-6-(1H-tetrazol-1-yl)pyridin-3-yl)ethyl)-3,9-diazaspiro[5.5]undecan-3-yl)cyclopent-2-enone]
20 | CC1=C(N2CCC3(CCN(C[C@@H](O)c4cccc(-n5cnnn5)n4)CC3)CC2)COC1=O [Example 6B, (R)-4-(9-(2-(6-(1H-tetrazol-1-yl)pyridin-2-yl)-2-hydroxyethyl)-3,9-diazaspiro[5.5]undecan-3-yl)-3-methylfuran-2(5H)-one]
34 | Cc1c(N2CCC3(CCN(C[C@@H](O)c4ccc(-n5cnnn5)nc4)CC3)CC2)c(=O)c1=O [Example 82, (S)-3-(9-(2-(6-(1H-tetrazol-1-yl)pyridin-3-yl)-2-hydroxyethyl)-3,9-diazaspiro[5.5]undecan-3-yl)-4-methylcyclobut-3-ene-1,2-dione]
246 | O=C1C=C(N2CCC3(CCN(C(=O)Cc4cnc(-n5cnnn5)c(F)c4)CC3)CC2)CO1 [Example 101, 4-(9-{[5-fluoro-6-(1H-tetrazol-1-yl)pyridin-3-yl]acetyl}-3,9-diazaspiro[5.5]undec-3-yl)furan-2(5H)-one]
141 | Cc1c([C@@H](O)CN2CCC3(CC2)CCN(c2c(C4CC4)c(=O)c2=O)CC3)ccc2c1COC2=O [Example 80, (R)-3-cyclopropyl-4-(9-(2-hydroxy-2-(4-methyl-1-oxo-1,3-dihydroisobenzofuran-5-yl)ethyl)-3,9-diazaspiro[5.5]undecan-3-yl)cyclobut-3-ene-1,2-dione]
117 | CC1=C(N2CCC3(CCN(C[C@@H](O)c4cncc(-n5cnnn5)c4)CC3)CC2)COC1=O [Example 64, (S)-4-(9-(2-(5-(1H-tetrazol-1-yl)pyridin-3-yl)-2-hydroxyethyl)-3,9-diazaspiro[5.5]undecan-3-yl)-3-methylfuran-2(5H)-one]
70 | CC1=C(N2CCC3(CCN(C[C@H](O)c4ccc(-n5cnnn5)cn4)CC3)CC2)COC1=O [Example 51, (S)-4-(9-(2-(5-(1H-tetrazol-1-yl)pyridin-2-yl)-2-hydroxyethyl)-3,9-diazaspiro[5.5]undecan-3-yl)-3-methylfuran-2(5H)-one]
596 | C[C@@H]1Cc2cc(C(O)CN3CCC4(CC3)CCN(C3=CC(=O)OC3)CC4)ccc2C(=O)O1 (stereo partly drawn) [Example 10, (3R)-6-(1-hydroxy-2-(9-(5-oxo-2,5-dihydrofuran-3-yl)-3,9-diazaspiro[5.5]undecan-3-yl)ethyl)-3-methylisochroman-1-one]
11 | CC1=C(N2CCC3(CCN(C[C@H](O)c4ccc(-n5cnnn5)cc4C)CC3)CC2)COC1=O [Example 55, (R)-4-(9-(2-hydroxy-2-(2-methyl-4-(1H-tetrazol-1-yl)phenyl)ethyl)-3,9-diazaspiro[5.5]undecan-3-yl)-3-methylfuran-2(5H)-one]
115 | O=C1C=C(N2CCC3(CCN(C(=O)Cc4cc(F)c(-n5cnnn5)cc4F)CC3)CC2)CO1 [Example 104, 4-(9-{[2,5-difluoro-4-(1H-tetrazol-1-yl)phenyl]acetyl}-3,9-diazaspiro[5.5]undec-3-yl)furan-2(5H)-one]
11 | Cc1nc(-n2cnnn2)ccc1[C@@H](O)CN1CCC2(CC1)CCN(C1=C(F)C(=O)OC1)CC2 [Example 39, (R)-3-fluoro-4-(9-(2-hydroxy-2-(2-methyl-6-(1H-tetrazol-1-yl)pyridin-3-yl)ethyl)-3,9-diazaspiro[5.5]undecan-3-yl)furan-2(5H)-one]
49 | Cc1c([C@@H](O)CN2CCC3(CC2)CCN(C2=CC(=O)OC2)C(C)C3)ccc2c1COC2=O (single isomer, unassigned) [Example 32]
15 | Cc1c(N2CCC3(CCN(C[C@H](O)c4ccc(-n5cnnn5)nc4)CC3)CC2)c(=O)c1=O [Example 81, (R)-3-(9-(2-(6-(1H-tetrazol-1-yl)pyridin-3-yl)-2-hydroxyethyl)-3,9-diazaspiro[5.5]undecan-3-yl)-4-methylcyclobut-3-ene-1,2-dione]
65 | Cc1nc(-n2cnnn2)ccc1[C@@H](O)CN1CCC2(CC1)CCN(C1=CC(=O)OC1)C(=O)O2 [Example 31, (R)-9-(2-hydroxy-2-(2-methyl-6-(1H-tetrazol-1-yl)pyridin-3-yl)ethyl)-3-(5-oxo-2,5-dihydrofuran-3-yl)-1-oxa-3,9-diazaspiro[5.5]undecan-2-one]
17 | O=C1C=C(N2CCC3(CCN(C[C@H](O)c4ccc(-n5cnnn5)cc4F)CC3)CC2)CO1 [Example 22, (R)-4-(9-(2-(2-fluoro-4-(1H-tetrazol-1-yl)phenyl)-2-hydroxyethyl)-3,9-diazaspiro[5.5]undecan-3-yl)furan-2(5H)-one]
49 | Cc1c([C@@H](O)CN2CCC3(CC2)CCN(C2=CC(=O)OC2)CC3)ccc2c1COC2=O [Example 8, (R)-5-(1-hydroxy-2-(9-(5-oxo-2,5-dihydrofuran-3-yl)-3,9-diazaspiro[5.5]undecan-3-yl)ethyl)-4-methylisobenzofuran-1(3H)-one]
30 | Cc1c([C@@H](O)CN2CCC3(CC2)CCN(c2c(C)c(=O)c2=O)CC3)ccc2c1COC2=O [Example 78, (R)-3-(9-(2-hydroxy-2-(4-methyl-1-oxo-1,3-dihydroisobenzofuran-5-yl)ethyl)-3,9-diazaspiro[5.5]undecan-3-yl)-4-methylcyclobut-3-ene-1,2-dione]
109 | CC1=C(N2CCC3(CCN(C[C@H](O)c4cncc(-n5cnnn5)n4)CC3)CC2)COC1=O [Example 65, (S)-4-(9-(2-(6-(1H-tetrazol-1-yl)pyrazin-2-yl)-2-hydroxyethyl)-3,9-diazaspiro[5.5]undecan-3-yl)-3-methylfuran-2(5H)-one]
28 | O=C1C=C(N2CCC3(CCN(C[C@@H](O)c4ccc(-n5cnnn5)cc4F)CC3)CC2)CO1 [Example 23, (S)-4-(9-(2-(2-fluoro-4-(1H-tetrazol-1-yl)phenyl)-2-hydroxyethyl)-3,9-diazaspiro[5.5]undecan-3-yl)furan-2(5H)-one]
48 | Cc1nc(-n2cnnn2)ccc1[C@@H](O)CN1CCC2(CC1)CCN(C1=CC(=O)OC1)C(=O)C2 [Example 26, (R)-9-(2-hydroxy-2-(2-methyl-6-(1H-tetrazol-1-yl)pyridin-3-yl)ethyl)-3-(5-oxo-2,5-dihydrofuran-3-yl)-3,9-diazaspiro[5.5]undecan-2-one]
14 | CC1=C(N2CCC3(CCN(C[C@H](O)c4ccc(-n5cnnn5)cc4F)CC3)CC2)COC1=O [Example 53, (R)-4-(9-(2-(2-fluoro-4-(1H-tetrazol-1-yl)phenyl)-2-hydroxyethyl)-3,9-diazaspiro[5.5]undecan-3-yl)-3-methylfuran-2(5H)-one]
38 | CC1=C(N2CCC3(CCN(C[C@@H](O)c4ccc(-n5cnnn5)nc4C)CC3)CC2)COC1=O [Example 46, (S)-4-(9-(2-hydroxy-2-(2-methyl-6-(1H-tetrazol-1-yl)pyridin-3-yl)ethyl)-3,9-diazaspiro[5.5]undecan-3-yl)-3-methylfuran-2(5H)-one]
19 | CC1=C(N2CCC3(CCN(C[C@@H](O)c4ccc(-n5cnnn5)nc4)CC3)CC2)COC1=O [Example 48, (S)-4-(9-(2-(6-(1H-tetrazol-1-yl)pyridin-3-yl)-2-hydroxyethyl)-3,9-diazaspiro[5.5]undecan-3-yl)-3-methylfuran-2(5H)-one]
